Tests used:
[1] = Mechanical stress experiment, Thioflavin T fibrillation assay; format: physicochemical; conditions: 45 hour mechanical stress, 37° C., samples A-D
Procedure: In order to determine the physical stability of peptides in solution an accelerated mechanical stress assay was performed. Samples were prepared just before starting the assay. Samples may be prepared in the pH range 3-9 and with peptide concentrations in the range 0-20 mM. Samples may contain buffers such as phosphate, acetate, Tris. Samples may contain antimicrobial preservatives such as phenol or m-cresol.
The pH of the sample was adjusted to the desired value using NaOH and HCl. Thioflavin T was added to the samples from a stock solution in H2O to a final concentration of 5 μM.
Aliquots of each sample were transferred to a 96 well microtiter plate (Packard OptiPlate™-96, white polystyrene) with 200 μL in each well. For each sample data may be recorded for one well or for two or more replicas (two or more wells). […]
Incubation at a selected temperature, mechanical stress and measurement of Thioflavin T fluorescence was performed using a Fluoroskan Ascent FL fluorescence platereader (Thermo Labsystems). […] Fluorescence measurement was performed using excitation through a 444 nm filter and measurement of emission through a 485 nm filter. The fluorescence was measured every 20 minutes during the experiment.
The fluorescence from Thioflavin T was plotted against duration of mechanical stress. A substantial increase in fluorescence from Thioflavin T indicates amyloid fibril formation. […]

human GLP-1 receptor = human GLP-1 receptor (Homo sapiens, UniProt P43220); assay: Functional GLP-1 receptor assay, in vitro potency (CRE luciferase; whole cells); format: cell-based; conditions: GLP1R CRE luc 1% HSA EC50 Mean Value, BHK cells expressing human GLP-1 receptor, 1% HSA
pH solubility assay = format: physicochemical; set-up: unit not given here; conditions: two days at 25° C.
Procedure: One approach is to make a pH gradient from a buffer mix consisting of two buffers (e.g. citrate 100 mM/phosphate 200 mM), spike with a concentrated sample stock, and then leave the samples for 2 days at ambient temperature. […] Samples were incubated for two days at 25° C., centrifuged at 4700 g, and the concentration measured in the supernatant on a Nanodrop UV spectrophotometer (Thermo Fischer Scientific, Waltham, Mass.) using a theoretical extinction coefficient of 6,990 cm^−1M^−1.

[2] = Pharmacokinetics in mini-pigs after i.v. administration; conditions: female, Göttingen, minipig, plasma, iv, 5 nmol/kg
Summary of the method: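 Female Göttingen mini-pigs (15-20 kg, N=3) received 5 nmol/kg i.v. via central venous catheter. Plasma levels of N-terminally intact peptide measured by LOCI immunoassay with N-terminal and mid-/C-terminal antibodies; non-compartmental analysis of individual profiles.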

[3] = system: Mouse monocyte/macrophage cell line, RAW 264.7; assay: Cholesterol efflux assay (3H-cholesterol, macrophage cell line); format: cell-based; conditions: RAW 264.7, 4 hrs incubation, 0.1% human serum albumin, ABCA1-mediated efflux
db/db mice = assay: Antidiabetic effect (acute blood glucose) in db/db mice; format: in vivo, male db/db (C57B1/KS db/db) mice
Procedure: The mice, 48 male db/db (C57B1/KS db/db), were purchased from Taconic, arriving at Novo Nordisk A/S Animal Unit at 6 weeks of age. The mice were housed according to standard rules in the animal unit and given free access to standard chow and tap water. The animals were kept at a room temperature of 22-24° C. and housed in groups of 5 mice, with free access to food and water, according to Animal Unit's SOP (Housing of experimental animals at Novo Nordisk A/S).
Test compound was administered as a single dose s.c.
Blood glucose was measured in a 5 μl full blood sample taken from the tip of the tail by puncturing the capillary bed with a lancet, using a 5 μl heparinised capillary tube to sample the blood. The capillary tube was then shaken into 2500 μl glucose/lactate System Solution and measured in a Biosen S_Line, autoanalyser (EKF Diagnostics GmbH, Magdeburg, Germany) according to the manufacturer's instructions. The samples were kept at room temperature until analysis. If analysis was postponed, samples were kept at 4° C. for a maximum of 24 h. The blood samples were taken at the following time points: 0, 30, 60, 120, 180 and 240 minutes and again at 24 h. After the 24 h sample, the blood was sampled from cheek or eye blood for drug exposure measurement in EDTA coated tubes. 50 μl plasma was pipetted from each animal for analysis in an in house immunoassay developed for GLP-1 analogues.

Chain of human GLP-1 receptor (P43220 24-463): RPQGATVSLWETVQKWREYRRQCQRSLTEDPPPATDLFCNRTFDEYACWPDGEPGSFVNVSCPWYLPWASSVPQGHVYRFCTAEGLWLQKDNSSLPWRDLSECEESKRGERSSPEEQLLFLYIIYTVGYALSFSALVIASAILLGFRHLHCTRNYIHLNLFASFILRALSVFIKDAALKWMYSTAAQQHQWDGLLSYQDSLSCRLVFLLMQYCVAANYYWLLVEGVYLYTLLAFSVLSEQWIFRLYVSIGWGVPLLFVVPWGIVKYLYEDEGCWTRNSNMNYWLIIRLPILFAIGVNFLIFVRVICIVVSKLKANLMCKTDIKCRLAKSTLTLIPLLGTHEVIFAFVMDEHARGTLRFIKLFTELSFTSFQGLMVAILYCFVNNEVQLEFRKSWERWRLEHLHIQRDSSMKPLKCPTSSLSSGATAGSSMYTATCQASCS

Q: With `CC[C@H](C)[C@H](NC(=O)[C@H](Cc1ccccc1)NC(=O)[C@H](CCC(=O)O)NC(=O)[C@H](CCCCN)NC(=O)[C@@H](NC(=O)[C@H](C)NC(=O)[C@H](CCC(=O)O)NC(=O)CNC(=O)[C@H](CCC(=O)O)NC(=O)[C@H](CC(C)C)NC(=O)[C@H](Cc1ccc(O)cc1)NC(=O)[C@H](CO)NC(=O)[C@H](CO)NC(=O)[C@@H](NC(=O)[C@H](CC(=O)O)NC(=O)[C@H](CO)NC(=O)[C@@H](NC(=O)[C@H](Cc1ccccc1)NC(=O)[C@@H](NC(=O)CNC(=O)[C@H](CCC(=O)O)NC(=O)C(C)(C)NC(=O)[C@@H](N)Cc1c[nH]cn1)[C@@H](C)O)[C@@H](C)O)C(C)C)C(C)C)C(=O)N[C@@H](C)C(=O)N[C@@H](Cc1c[nH]c2ccccc12)C(=O)N[C@@H](CC(C)C)C(=O)N[C@H](C(=O)N[C@@H](CCC(=O)O)C(=O)N[C@@H](CCCCN)C(=O)NC(C)(C)C(=O)N[C@@H](CCCCN)C(=O)N[C@@H](CCC(=O)O)C(=O)N[C@@H](Cc1ccccc1)C(=O)N[C@@H](CC(C)C)C(N)=O)C(C)C` [Compound 1, [Aib8,Glu23,Val25,Glu34,Lys35,Aib36,Lys37]-GLP-1-(7-37)-peptidyl-Glu-Phe-Leu amide] as the compound, how does the “fibril formation (Thioflavin T fluorescence)” value [1] read?
A: The value was “did not show signs of fibril formation”.

Q: And the EC50 (human GLP-1 receptor)?
A: Its EC50 is 0.111 nM.

Q: And the Conc. supernatant (pH solubility assay; pH meas. 4.15, citrate 100 mM/phosphate 200 mM)?
A: Its Conc. supernatant is 0.009.

Q: And the Conc. supernatant (pH solubility assay; pH meas. 4.50, citrate 100 mM/phosphate 200 mM)?
A: Its Conc. supernatant is 0.002.

Q: And the Conc. supernatant (pH solubility assay; pH meas. 4.95, citrate 100 mM/phosphate 200 mM)?
A: The Conc. supernatant was 0.005.

Q: What about the Conc. supernatant (pH solubility assay; pH meas. 5.29, citrate 100 mM/phosphate 200 mM) of the same compound?
A: Its Conc. supernatant is 0.021.

Q: What about the Conc. supernatant (pH solubility assay; pH meas. 5.75, citrate 100 mM/phosphate 200 mM) of the same compound?
A: The Conc. supernatant was 0.270.

Q: And the Conc. supernatant (pH solubility assay; pH meas. 6.10, citrate 100 mM/phosphate 200 mM)?
A: The Conc. supernatant was 0.228.

Q: What about the Conc. supernatant (pH solubility assay; pH meas. 6.42, citrate 100 mM/phosphate 200 mM) of the same compound?
A: Its Conc. supernatant is 0.234.

Q: And the Conc. supernatant (pH solubility assay; pH meas. 6.76, citrate 100 mM/phosphate 200 mM)?
A: The Conc. supernatant was 0.249.

Q: And the Conc. supernatant (pH solubility assay; pH meas. 7.21, citrate 100 mM/phosphate 200 mM)?
A: The Conc. supernatant was 0.233.

Q: What about the Conc. supernatant (pH solubility assay; pH meas. 7.65, citrate 100 mM/phosphate 200 mM) of the same compound?
A: The Conc. supernatant was 0.244.

Q: And the Conc. supernatant (pH solubility assay; pH meas. 8.29, citrate 100 mM/phosphate 200 mM)?
A: The Conc. supernatant was 0.254.

Q: And the Conc. supernatant (pH solubility assay; pH meas. 8.65, phosphate 200 mM only)?
A: The Conc. supernatant was 0.247.

Q: What about the C0 [2] of the same compound?
A: Its C0 is 57.2 nM.

Q: What about the Vd [2] of the same compound?
A: The Vd was 0.16 L/kg.

Q: And the clearance [2]?
A: Its clearance is 3.3 mL/h/kg.

Q: And the half-life ([2]; T1/2, mini-pigs)?
A: Its half-life is 33.7 h.

Q: What about the half-life ([2]; T1/2 Mean Value, Göttingen mini-pigs, N=3) of the same compound?
A: The half-life was 33.7 h.

Q: What about the “4 h Cholesterol Efflux Emax” value [3] of the same compound?
A: Its value is 100%.

Q: What about the duration of action (db/db mice; single s.c. dose) of the same compound?
A: Its duration of action is “at least 24 h”.

Q: And the “acute effect on blood glucose” value (db/db mice; single s.c. dose 10, 30, 100 and 300 nmol/kg)?
A: Its value is “lowered blood glucose in a dose-dependent manner”.

Q: And the “Plasma concentration 24 hours after dosing” value (db/db mice; single s.c. dose, FIG. 1B)?
A: Its value is “still very high”.

Source: patent US20150344540A1, “NOVEL GLP-1 RECEPTOR AGONISTS WITH CHOLESTEROL EFFLUX ACTIVITY” (NOVO NORDISK A/S, priority 2012, published 2015)
